Laboratory results published in PubChem BioAssay (NCI).
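48-hour exposure; five concentrations; linearly interpolated endpoints. TGI is the concentration that stops growth completely.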

Legend:
Assay in all cases: NCI-60 cell line screen, 48 h
[1] = tested on: SN12C renal
[2] = tested on: M14 melanoma
[3] = tested on: OVCAR-8 ovarian
[4] = tested on: CCRF-CEM leukemia
[5] = tested on: SF-539 CNS
[6] = tested on: NCI-H226 lung
[7] = tested on: SNB-19 CNS
[8] = tested on: SK-MEL-2 melanoma
[9] = tested on: RPMI-8226 leukemia
[10] = tested on: SF-295 CNS
[11] = tested on: HT29 colon
[12] = tested on: K-562 leukemia
[13] = tested on: SK-OV-3 ovarian
[14] = tested on: HCC-2998 colon
[15] = tested on: OVCAR-4 ovarian
[16] = tested on: DMS 273 small cell lung
[17] = tested on: NCI-H23 lung
[18] = tested on: MDA-MB-435
[19] = tested on: PC-3 prostate
[20] = tested on: BT-549 breast

## C/C(CC(=O)NC1=CC=C(NC(=O)C/C(C)=N\Nc2ccccc2)CC1)=N/Nc1ccccc1
[1]
  TGI: > 100 µM
[2]
  TGI: > 100 µM
[3]
  TGI: > 100 µM
[4]
  TGI: > 100 µM
[5]
  TGI: > 100 µM
[6]
  TGI: > 100 µM
[7]
  TGI: > 100 µM
[8]
  TGI: > 100 µM
[9]
  TGI: > 100 µM
[10]
  TGI: > 100 µM
[11]
  TGI: > 100 µM
[12]
  TGI: > 100 µM
[13]
  TGI: > 100 µM
[14]
  TGI: > 100 µM
[15]
  TGI: > 100 µM
[16]
  TGI: > 100 µM
[17]
  TGI: > 100 µM

## COc1cc(C)c(C)c(OC(=O)c2c(C)c(C)c(OC)c(C)c2OC)c1C
[1]
  TGI: > 100 µM
[2]
  TGI: 33.9 µM
[3]
  TGI: > 100 µM
[4]
  TGI: 62 µM
[5]
  TGI: 38.6 µM
[6]
  TGI: 72.1 µM
[7]
  TGI: > 100 µM
[8]
  TGI: 24.8 µM
[9]
  TGI: 81.5 µM
[10]
  TGI: 38.6 µM
[11]
  TGI: 23.5 µM
[12]
  TGI: 44.7 µM
[13]
  TGI: 57.2 µM
[14]
  TGI: 53.1 µM
[15]
  TGI: > 100 µM
[16]
  TGI: 20.6 µM
[17]
  TGI: 52.9 µM

## O=S(=O)(O)c1cc(N=Nc2cc(S(=O)(=O)O)c3cccnc3c2O)ccc1/C=C/c1ccc(N=Nc2cc(S(=O)(=O)O)c3cccnc3c2O)cc1S(=O)(=O)O
[1]
  TGI: > 100 µM
[2]
  TGI: > 100 µM
[3]
  TGI: > 100 µM
[4]
  TGI: 52.5 µM
[18]
  TGI: > 100 µM
[5]
  TGI: > 100 µM
[6]
  TGI: > 100 µM
[7]
  TGI: > 100 µM
[8]
  TGI: > 100 µM
[9]
  TGI: > 100 µM
[10]
  TGI: > 100 µM
[19]
  TGI: > 100 µM
[11]
  TGI: > 100 µM
[12]
  TGI: > 89.8 µM
[13]
  TGI: > 100 µM
[14]
  TGI: > 100 µM
[15]
  TGI: > 100 µM
[16]
  TGI: > 100 µM
[20]
  TGI: > 100 µM
[17]
  TGI: > 100 µM

## CN(C)CC1(Cc2ccccc2)CCC(Cc2ccccc2)C1=O (centres undefined)
[1]
  TGI: 23.9 µM
[2]
  TGI: 23.9 µM
[3]
  TGI: 18.2 µM
[4]
  TGI: 12.5 µM
[18]
  TGI: 23.8 µM
[5]
  TGI: 33.5 µM
[6]
  TGI: 37.9 µM
[7]
  TGI: 29.7 µM
[8]
  TGI: 27.3 µM
[9]
  TGI: 6.84 µM
[10]
  TGI: 31.2 µM
[19]
  TGI: 22.9 µM
[11]
  TGI: 28.6 µM
[12]
  TGI: 7.74 µM
[13]
  TGI: 36.4 µM
[14]
  TGI: 21.4 µM
[15]
  TGI: 31 µM
[16]
  TGI: 29 µM
[20]
  TGI: 25.5 µM
[17]
  TGI: 36.1 µM

## CCc1cccc(CC)c1NC(=O)C1=C(C)NC(C)=C(C(=O)Nc2c(CC)cccc2CC)C1c1ccc2c(c1)OCO2
[1]
  TGI: 28.7 µM
[2]
  TGI: 31.1 µM
[3]
  TGI: 34.7 µM
[4]
  TGI: 20.3 µM
[5]
  TGI: 37.8 µM
[6]
  TGI: 28.6 µM
[7]
  TGI: 33 µM
[8]
  TGI: 33.7 µM
[9]
  TGI: > 100 µM
[10]
  TGI: 29.2 µM
[11]
  TGI: 30.4 µM
[12]
  TGI: 38.2 µM
[13]
  TGI: 60.6 µM
[14]
  TGI: 36.7 µM
[15]
  TGI: 42.9 µM
[16]
  TGI: 26 µM
[17]
  TGI: 32.8 µM

## CC(=O)NC(CCCNC(=O)NCCCl)C(=O)NCc1ccccc1 (centres undefined)
[1]
  TGI: > 100 µM
[2]
  TGI: > 100 µM
[3]
  TGI: > 100 µM
[4]
  TGI: > 100 µM
[5]
  TGI: > 100 µM
[6]
  TGI: > 100 µM
[7]
  TGI: > 100 µM
[8]
  TGI: > 100 µM
[9]
  TGI: > 100 µM
[10]
  TGI: > 100 µM
[11]
  TGI: > 100 µM
[12]
  TGI: > 100 µM
[14]
  TGI: > 100 µM
[15]
  TGI: > 100 µM
[16]
  TGI: > 100 µM
[17]
  TGI: > 100 µM

## COc1ccc(N2C(=O)[C@@H]3[C@H](C2=O)c2[nH]c4ccccc4c2C2CCC(C(C)(C)C)C[C@@H]23)cc1 (some centres undefined)
[1]
  TGI: 37.5 µM
[2]
  TGI: > 100 µM
[3]
  TGI: 42.2 µM
[4]
  TGI: 43.7 µM
[5]
  TGI: 62.6 µM
[6]
  TGI: 46.4 µM
[7]
  TGI: > 61.4 µM
[8]
  TGI: > 89.9 µM
[9]
  TGI: > 100 µM
[10]
  TGI: 29.4 µM
[11]
  TGI: > 100 µM
[12]
  TGI: > 31.6 µM
[13]
  TGI: 44.2 µM
[14]
  TGI: > 100 µM
[16]
  TGI: > 77.9 µM
[17]
  TGI: 66.4 µM

## Cn1nc2ccc3nccc(N(CCO)CCO)c3c2n1
[1]
  TGI: > 100 µM
[2]
  TGI: > 100 µM
[3]
  TGI: > 100 µM
[4]
  TGI: > 100 µM
[5]
  TGI: > 100 µM
[6]
  TGI: > 100 µM
[7]
  TGI: > 100 µM
[8]
  TGI: > 100 µM
[9]
  TGI: > 100 µM
[10]
  TGI: > 100 µM
[11]
  TGI: > 100 µM
[12]
  TGI: > 100 µM
[13]
  TGI: > 100 µM
[14]
  TGI: > 100 µM
[16]
  TGI: > 100 µM
[17]
  TGI: > 100 µM

## CCCCCCCCCCCCn1[nH]c(C)c(C(=S)SCCCCCCCC)c1=O
[1]
  TGI: > 100 µM
[2]
  TGI: > 100 µM
[3]
  TGI: > 88.1 µM
[4]
  TGI: > 78.3 µM
[5]
  TGI: > 100 µM
[6]
  TGI: > 94.8 µM
[7]
  TGI: > 100 µM
[8]
  TGI: > 100 µM
[9]
  TGI: > 35.7 µM
[10]
  TGI: > 100 µM
[11]
  TGI: > 100 µM
[12]
  TGI: > 100 µM
[13]
  TGI: > 100 µM
[14]
  TGI: > 100 µM
[15]
  TGI: > 100 µM
[16]
  TGI: > 100 µM
[17]
  TGI: > 100 µM

## CCCCNC(=O)CCN(C(=O)O)S(=O)(=O)c1ccc(NC(=O)c2ccccc2)cc1
[1]
  TGI: > 100 µM
[2]
  TGI: > 100 µM
[3]
  TGI: > 100 µM
[4]
  TGI: > 100 µM
[5]
  TGI: > 100 µM
[6]
  TGI: > 100 µM
[7]
  TGI: > 100 µM
[8]
  TGI: > 100 µM
[9]
  TGI: > 100 µM
[10]
  TGI: > 100 µM
[11]
  TGI: 49.8 µM
[12]
  TGI: > 100 µM
[13]
  TGI: > 100 µM
[14]
  TGI: > 100 µM
[15]
  TGI: > 100 µM
[16]
  TGI: 86.5 µM
[17]
  TGI: > 100 µM

## CCC1(N=[N+]=[N-])C(=O)c2ccccc2N(c2ccccc2)C1=O (centres undefined)
[1]
  TGI: > 100 µM
[2]
  TGI: > 100 µM
[3]
  TGI: > 100 µM
[4]
  TGI: > 100 µM
[5]
  TGI: > 100 µM
[7]
  TGI: > 100 µM
[8]
  TGI: > 100 µM
[10]
  TGI: > 100 µM
[11]
  TGI: > 100 µM
[12]
  TGI: > 100 µM
[13]
  TGI: > 100 µM
[14]
  TGI: > 100 µM
[15]
  TGI: > 100 µM
[16]
  TGI: > 100 µM
[17]
  TGI: > 100 µM

## Cc1nc2c(n1CCN(C)C)C(=O)c1ccccc1C2=O
[1]
  TGI: 35.8 µM
[2]
  TGI: 24.1 µM
[3]
  TGI: 43.1 µM
[4]
  TGI: 47.1 µM
[5]
  TGI: 46.3 µM
[6]
  TGI: > 100 µM
[7]
  TGI: 76.2 µM
[8]
  TGI: 26.2 µM
[10]
  TGI: 30.9 µM
[11]
  TGI: 65.1 µM
[12]
  TGI: 48.4 µM
[13]
  TGI: > 100 µM
[14]
  TGI: 47.7 µM
[15]
  TGI: 29.3 µM
[16]
  TGI: 28.8 µM
[17]
  TGI: 24.5 µM
